Source: article PMC9227096, “Design, Synthesis, and In Vitro, In Silico and In Cellulo Evaluation of New Pyrimidine and Pyridine Amide and Carbamate Derivatives as Multi-Functional Cholinesterase Inhibitors” (Pharmaceuticals, 2022)
Like-named read-outs stand apart in the source and are kept apart here.

Key:
[1] = target: T1, Electrophorus electricus AChE (EeAChE) (Electrophorus electricus, UniProt O42275); test: Ellman's spectrophotometric method, percent inhibition of EeAChE (zero time and after 1 h incubation); format: biochemical
T1 construct: purchased Sigma-Aldrich (Milan, Italy)
Protocol: (§1) Regarding the synthesized compounds enzymatic inhibition studies were carried out on Electrophorus electricus AChE (EeAChE) and equine BChE (eqBChE), according to Ellman’s spectrophotometric method.
(§2) All other chemical and biological reagents and solvents used were of the highest analytical, commercially available grade. The water, utilized for the preparation of the phosphate buffer and of the solutions of compounds, was distilled and filtered on nylon membrane filters with 0.2 μm pore size with the Millipore® Filtration apparatus before each use. Micropipettes Labmate (BRAND Dig. 10–100 μL; Dig. 100–1000 μL; Dig. 0.1–2 μL) and Transferpette (HIGH TECH LAB LM200: 20–200 μL; LM5000: 1000–5000 μL) were used to collect the samples. The assays were carried out by double beam UV–Vis Lambda 40 Perkin Elmer spectrophotometer, using optical polystyrene cuvettes (10 × 10 × 45 mm, 340–800 nm optical transparency), each measure was repeated at least in triplicate. […] Vivaspin® 2 Sartorius, with a membrane of 3000 MWCO (molecular weight cutoff) consisting of polyethersulfone (PES), cellulose triacetate (CTA) and hydrosart, was used for the ultrafiltration procedures. An ALC PK110 bench-top centrifuge was used for centrifugation. The spectrophotometric method of Ellman, with minor modifications, was used to evaluate the inhibition of cholinesterase enzymes. […] EeAChE and eqBChE were periodically tested to evaluate the effective enzymatic activity.
(§3) An amount of 3.0 mL of a solution in 0.1 M phosphate buffer (pH = 7.4) containing DTNB (0.25 mM) and EeAChE (0.083 UmL^−1) or eqBChE (0.083 UmL^−1) were placed in a polystyrene cuvette of 1.0 cm path length; 1 µL of a solution in DMSO of the tested compound was added to obtain in cuvette concentration range 9 µM–0.09 µM. With this solution the blank was made.
(§4) Each experiment was repeated at least in triplicate.
(§5) The cuvettes were prepared consecutively at intervals of 3 min to allow equal incubation times.

[2] = Chelation studies: UV-Vis titration and Job's plot; format: physicochemical; conditions: for chelating ability on the biometals Fe^3+, Cu^2+ and Zn^2+: UV-Vis spectra in MeOH, ligand/metal ratio 1:3, 1:5 or 1:10
Protocol: Initially, the UV–Vis spectrum of the ligand was recorded and compared with the spectra obtained by adding an excess of metal to the ligand solution, maintaining the same concentration of the ligand (ligand/metal ratio 1:3, 1:5 or 1:10). The variation of the UV–Vis spectrum of the ligand in presence of metal ions is indicative of the formation of the complex. […] As previously supposed, the chelating activity of these compounds is due to the presence of two adjacent nitrogen atoms in the 2-amino-pyridine moiety.
UV–Vis titrations of these compounds were carried out with the metal ions with which they form complexes, recording first the UV–Vis spectrum of the ligand and then the spectra obtained by mixing solutions of ligand and metal according to increasing metal/ligand molar ratios (Figure 7a).
The stoichiometries of metal–ligand complexes were determined through Job’s method.
The mole fraction X, which causes the maximum variation of absorbance, is extracted from the graph and then the value of the coefficient n, which corresponds to the number of ligand molecules per cation, is obtained (Figure 7b). The UV–Vis titrations spectra and the Job’s plots of all tested compound are reported in the Supplementary Materials (Figures S8–S17), while the data extrapolated from Job’s plots are summarized in Table 5.
For the UV–Vis titration, solutions 10^−3 M in MeOH of compounds 12, 14 and 18 were prepared. […]. UV–Vis spectra were recorded from 210 to 450 nm.
For the first measure, 150 µL of ligand solution were diluted in 2.85 mL of MeOH into sample cuvette, while only MeOH was placed in reference cuvette and the UV–Vis spectrum was recorded. For subsequent measurements, 2.85 mL of the opportune metal solution were placed both in a sample cuvette and in a reference cuvette; then 150 µL of ligand solution were added to a sample cuvette, while 150 µL of MeOH were added to the reference cuvette and the UV–Vis spectra were recorded. The spectra thus obtained were superimposed to observe the variations present between the ligand alone and in presence of increasing amount of metal.
To determine the stoichiometric coefficients of the complexes, Job’s method was used, which requires the mixing, in appropriate proportions, of the equimolar solution of metal ion and ligand, so that the final volume and the total moles present in the cuvette are equal for each measurement. The absorbance values were recorded at the wavelengths, extrapolated from the UV–Vis titration spectra, where the maximum variation of absorbance was observed. At the same time two solutions in MeOH of equal concentration were prepared, one of ligand and one of metal ion, diluting the solutions 1 M of CuSO4·5H2O and Zn(NO3)2·6H2O and 0.1 M of FeCl3·6H2O previously prepared. The concentrations of the solutions used and the wavelengths in which the absorbance was recorded were: 2.96·10^−4 M for 12 and Fe^3+–251, 320 nm; 2.83·10^−4 M for 14 and Fe^3+–250, 310 nm; 2.90·10^−4 M for 18 and Fe^3+–245, 310 nm; 6.00·10^−4 M for 18 and Cu^2+–330 nm.
For each determination 9–20 measurements were made, introducing the appropriate volumes of metal and ligand solutions in the sample cuvette to obtain mole fractions of the ligand in the range 0.1–0.9, while appropriate volumes of ligand solution and MeOH were placed in the reference cuvette, to obtain the same concentration of ligand in the sample cuvette. The absorbance values of the metal ion, calculated by the Lambert–Beer relation, known the extinction coefficients ε of the metal ion at used wavelengths and the nominal concentrations of the metal ion for each measure, were algebraically subtracted from the recorded absorbance values, in order to obtain the exclusive absorbance variations due to the complex formation. […]

equine BChE (eqBChE) = target: T2, equine BChE (eqBChE) (Equus caballus, UniProt P81908); test: Ellman's spectrophotometric method, percent inhibition of eqBChE (zero time and after 1 h incubation); format: biochemical; conditions: read-out: % Inhibition vs. eqBChE ± SD; for inhibition at 9 µM: [I] 9 µM
T2 construct: purchased Sigma-Aldrich (Milan, Italy)
Protocol: as §1, §2, §3, §4, §5

[3] = read-out: % Inhibition vs. EeAChE ± SD, [I] 9 µM, 0.0833 U/mL enzyme, 100 µM acetylthiocholine
[4] = [I] 900 nM, 0.0833 U/mL enzyme, 100 µM acetylthiocholine
[5] = 0.0833 U/mL enzyme, 100 µM acetylthiocholine

T1 sequence (O42275 24-633): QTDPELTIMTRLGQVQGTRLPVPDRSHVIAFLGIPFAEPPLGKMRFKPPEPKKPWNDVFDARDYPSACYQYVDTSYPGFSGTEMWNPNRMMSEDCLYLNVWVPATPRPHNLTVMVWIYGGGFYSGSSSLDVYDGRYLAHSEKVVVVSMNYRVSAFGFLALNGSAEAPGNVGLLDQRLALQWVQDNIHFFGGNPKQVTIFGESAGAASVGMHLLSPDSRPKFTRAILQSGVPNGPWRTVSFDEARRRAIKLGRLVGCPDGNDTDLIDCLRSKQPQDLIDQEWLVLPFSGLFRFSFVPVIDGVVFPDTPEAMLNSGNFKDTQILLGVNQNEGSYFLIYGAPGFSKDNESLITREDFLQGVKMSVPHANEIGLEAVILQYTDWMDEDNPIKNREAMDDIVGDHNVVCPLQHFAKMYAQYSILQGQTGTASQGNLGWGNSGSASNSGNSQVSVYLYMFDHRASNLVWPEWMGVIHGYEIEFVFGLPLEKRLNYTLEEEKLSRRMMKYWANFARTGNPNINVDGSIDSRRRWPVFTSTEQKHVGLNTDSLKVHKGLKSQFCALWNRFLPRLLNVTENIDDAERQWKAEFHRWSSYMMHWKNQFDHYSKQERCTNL
T2 sequence (P81908 whole entry): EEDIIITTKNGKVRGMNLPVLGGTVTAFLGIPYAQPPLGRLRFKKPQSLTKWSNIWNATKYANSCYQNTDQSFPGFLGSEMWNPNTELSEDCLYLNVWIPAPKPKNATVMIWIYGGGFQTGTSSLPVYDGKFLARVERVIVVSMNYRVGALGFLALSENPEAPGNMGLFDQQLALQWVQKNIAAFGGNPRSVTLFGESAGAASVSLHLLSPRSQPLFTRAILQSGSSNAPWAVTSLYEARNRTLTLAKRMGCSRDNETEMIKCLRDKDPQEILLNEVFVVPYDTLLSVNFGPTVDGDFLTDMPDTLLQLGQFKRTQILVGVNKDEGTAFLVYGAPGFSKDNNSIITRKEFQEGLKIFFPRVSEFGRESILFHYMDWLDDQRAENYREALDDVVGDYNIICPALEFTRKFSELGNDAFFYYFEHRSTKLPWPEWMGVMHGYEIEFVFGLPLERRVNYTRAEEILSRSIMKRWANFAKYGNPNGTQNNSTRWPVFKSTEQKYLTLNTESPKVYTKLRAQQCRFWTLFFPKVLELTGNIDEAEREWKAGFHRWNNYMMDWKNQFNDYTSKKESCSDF

SMILES | % Inhibition vs. EeAChE ± SD ([1]; [I] 9 µM, 0.0833 U/mL enzyme, 100 µM acetylthiocholine) [%] | inhibition at 9 µM [1, 3] [%] | X (mole fraction that causes the maximum variation of absorbance), Fe^3+ ([2]; Job's plot) | n (number of ligand molecules per cation), Fe^3+ ([2]; Job's plot) | chelating ability on the biometals Fe^3+, Cu^2+ and Zn^2+ [2] | inhibition at 0.9 µM (equine BChE (eqBChE); [4]) [%] | inhibition at 9 µM (equine BChE (eqBChE); [5]) [%] | inhibition at 9 µM ([1]; 1 h, read-out: % Inhibition vs. EeAChE ± SD, [I] = 9 µM, t = 1 h incubation at 25 °C) [%] | X (mole fraction that causes the maximum variation of absorbance), Cu^2+ ([2]; Job's plot, Cu^2+) | n (number of ligand molecules per cation), Cu^2+ ([2]; Job's plot, Cu^2+) | inhibition at 0.9 µM (equine BChE (eqBChE); 1 h, [I] = 900 nM, t = 1 h incubation at 25 °C) [%]
O=C(NCCCCCCNc1ccccn1)c1ccccc1 [Compound 12, N-(6-(pyridin-2-ylamino)hexyl)benzamide] | 34.0 ± 2.1 | 34 | 0.69 | 2 | ability to chelate Fe^3+ and Cu^2+ ions | 22 | 81 |  |  |  | 
O=C(Cc1ccc(Oc2ccccc2)cc1)NCCCCCCNc1ccccn1 [Compound 14, 2-(4-phenoxyphenyl)-N-(6-(pyridin-2-ylamino)hexyl)acetamide] |  | 42.6 ± 1.4 | 0.70 | 2 | ability to chelate Fe^3+ and Cu^2+ ions | 45 | 88 |  |  |  | 
O=C(NCCCCCCNc1ccccn1)Oc1ccccc1 [Compound 18, Phenyl (6-(pyridin-2-ylamino)hexyl)carbamate] |  |  | 0.69 | 2 | ability to chelate Fe^3+ and Cu^2+ ions |  |  | 41.6 ± 0.7 | 0.49 | 1 | 79.6 ± 5.3
